Measured values: the supplement of paper PMC10307832

Assays:
Experiment in all cases: relative viability (nuclei count vs DMSO), 5 days (fraction); higher = more cells survive
CAL-12T = tested on: CAL-12T
Procedure, shortened: (§1)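 Cells from lung cancer lines were seeded into 1536-well plates and, one day later, dosed by pin tool. Treatments were either a single drug or a fixed dose of an anchor drug with five library-drug doses (not always all listed) in √10 steps. After 5 days, nuclei were stained in a one-step fixation (final 0.05% Triton X-100, 1% formaldehyde, 1 ug/ml Hoechst) and counted on 4× images, and relative viability is the treated-to-vehicle nuclei ratio, as the median of duplicate plates.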

COR-L 105 = tested on: COR-L 105
Procedure, shortened: as §1

ChaGo-K-1 = tested on: ChaGo-K-1
Procedure, shortened: as §1

EKVX = tested on: EKVX
Procedure, shortened: as §1

EPLC-272H = tested on: EPLC-272H
Procedure, shortened: as §1

H3255 = tested on: H3255
Procedure, shortened: as §1

HCC-366 = tested on: HCC-366
Procedure, shortened: as §1

HCC-827 = tested on: HCC-827
Procedure, shortened: as §1

NCI-H1355 = tested on: NCI-H1355
Procedure, shortened: as §1

NCI-H1792 = tested on: NCI-H1792
Procedure, shortened: as §1

NCI-H1975 = tested on: NCI-H1975
Procedure, shortened: as §1

NCI-H2009 = tested on: NCI-H2009
Procedure, shortened: as §1

NCI-H2085 = tested on: NCI-H2085
Procedure, shortened: as §1

NCI-H2087 = tested on: NCI-H2087
Procedure, shortened: as §1

NCI-H2228 = tested on: NCI-H2228
Procedure, shortened: as §1

NCI-H322M = tested on: NCI-H322M
Procedure, shortened: as §1

NCI-H441 = tested on: NCI-H441
Procedure, shortened: as §1

NCI-H460 = tested on: NCI-H460
Procedure, shortened: as §1

SK-MES-1 = tested on: SK-MES-1
Procedure, shortened: as §1

`Cc1cn(-c2cc(NC(=O)c3ccc(C)c(Nc4nccc(-c5cccnc5)n4)c3)cc(C(F)(F)F)c2)cn1` [Nilotinib] + CC1(C)CCC(c2ccc(Cl)cc2)=C(CN2CCN(c3ccc(C(=O)NS(=O)(=O)c4ccc(N[C@H](CCN5CCOCC5)CSc5ccccc5)c(S(=O)(=O)C(F)(F)F)c4)cc3)CC2)C1 [Navitoclax] (partner 0.5 µM) was tested. Which relative viability (CAL-12T; first compound 0.003162 µM) did it give?
The relative viability was 1.17.

What about the relative viability (CAL-12T; first compound 0.01 µM) of the same molecule?
The relative viability was 1.17.

And the relative viability (CAL-12T; first compound 0.03162 µM)?
The relative viability was 1.02.

And the relative viability (CAL-12T; first compound 0.1 µM)?
The relative viability was 0.956.

And the relative viability (COR-L 105; first compound 0.001 µM)?
Its relative viability is 0.709.

And the relative viability (COR-L 105; first compound 0.01 µM)?
The relative viability was 0.696.

And the relative viability (COR-L 105; first compound 0.03162 µM)?
Its relative viability is 0.644.

What about the relative viability (COR-L 105; first compound 0.1 µM) of the same molecule?
The relative viability was 0.848.

And the relative viability (ChaGo-K-1; first compound 0.001 µM)?
Its relative viability is 1.47.

And the relative viability (ChaGo-K-1; first compound 0.003162 µM)?
The relative viability was 0.924.

What about the relative viability (ChaGo-K-1; first compound 0.01 µM) of the same molecule?
The relative viability was 1.06.

And the relative viability (ChaGo-K-1; first compound 0.03162 µM)?
Its relative viability is 0.754.

And the relative viability (ChaGo-K-1; first compound 0.1 µM)?
The relative viability was 0.787.

What about the relative viability (EKVX; first compound 0.001 µM) of the same molecule?
Its relative viability is 0.795.

What about the relative viability (EKVX; first compound 0.003162 µM) of the same molecule?
The relative viability was 1.29.

What about the relative viability (EKVX; first compound 0.01 µM) of the same molecule?
The relative viability was 1.42.

And the relative viability (EKVX; first compound 0.03162 µM)?
The relative viability was 0.764.

And the relative viability (EKVX; first compound 0.1 µM)?
The relative viability was 1.21.

What about the relative viability (EPLC-272H; first compound 0.001 µM) of the same molecule?
The relative viability was 1.1.

What about the relative viability (EPLC-272H; first compound 0.003162 µM) of the same molecule?
The relative viability was 1.32.

And the relative viability (EPLC-272H; first compound 0.01 µM)?
The relative viability was 1.5.

And the relative viability (EPLC-272H; first compound 0.03162 µM)?
Its relative viability is 0.804.

And the relative viability (EPLC-272H; first compound 0.1 µM)?
Its relative viability is 1.28.

And the relative viability (H3255; first compound 0.001 µM)?
The relative viability was 0.508.

And the relative viability (H3255; first compound 0.003162 µM)?
The relative viability was 0.479.

What about the relative viability (H3255; first compound 0.01 µM) of the same molecule?
Its relative viability is 0.541.

What about the relative viability (H3255; first compound 0.03162 µM) of the same molecule?
Its relative viability is 0.246.

And the relative viability (H3255; first compound 0.1 µM)?
The relative viability was 0.382.

What about the relative viability (HCC-366; first compound 0.001 µM) of the same molecule?
Its relative viability is 1.07.

What about the relative viability (HCC-366; first compound 0.01 µM) of the same molecule?
Its relative viability is 1.62.

And the relative viability (HCC-366; first compound 0.03162 µM)?
Its relative viability is 0.696.

What about the relative viability (HCC-366; first compound 0.1 µM) of the same molecule?
Its relative viability is 0.744.

And the relative viability (HCC-827; first compound 0.001 µM)?
Its relative viability is 1.02.

And the relative viability (HCC-827; first compound 0.003162 µM)?
The relative viability was 1.08.

What about the relative viability (HCC-827; first compound 0.01 µM) of the same molecule?
Its relative viability is 1.1.

And the relative viability (HCC-827; first compound 0.1 µM)?
Its relative viability is 1.

And the relative viability (NCI-H1355; first compound 0.001 µM)?
Its relative viability is 1.

What about the relative viability (NCI-H1355; first compound 0.003162 µM) of the same molecule?
The relative viability was 1.14.

And the relative viability (NCI-H1355; first compound 0.01 µM)?
Its relative viability is 1.12.

What about the relative viability (NCI-H1355; first compound 0.03162 µM) of the same molecule?
The relative viability was 0.928.

What about the relative viability (NCI-H1355; first compound 0.1 µM) of the same molecule?
The relative viability was 0.893.

And the relative viability (NCI-H1792; first compound 0.001 µM)?
The relative viability was 0.523.

What about the relative viability (NCI-H1792; first compound 0.01 µM) of the same molecule?
Its relative viability is 0.907.

And the relative viability (NCI-H1792; first compound 0.1 µM)?
The relative viability was 0.794.

And the relative viability (NCI-H1975; first compound 0.001 µM)?
The relative viability was 0.904.

And the relative viability (NCI-H1975; first compound 0.003162 µM)?
Its relative viability is 1.22.

And the relative viability (NCI-H1975; first compound 0.01 µM)?
The relative viability was 1.34.

And the relative viability (NCI-H1975; first compound 0.03162 µM)?
The relative viability was 0.694.

And the relative viability (NCI-H1975; first compound 0.1 µM)?
The relative viability was 0.976.

And the relative viability (NCI-H2009; first compound 0.001 µM)?
Its relative viability is 1.09.

What about the relative viability (NCI-H2009; first compound 0.003162 µM) of the same molecule?
The relative viability was 1.19.

What about the relative viability (NCI-H2009; first compound 0.01 µM) of the same molecule?
Its relative viability is 1.21.

What about the relative viability (NCI-H2009; first compound 0.03162 µM) of the same molecule?
The relative viability was 1.19.

What about the relative viability (NCI-H2009; first compound 0.1 µM) of the same molecule?
The relative viability was 1.23.

What about the relative viability (NCI-H2085; first compound 0.001 µM) of the same molecule?
The relative viability was 1.12.

What about the relative viability (NCI-H2085; first compound 0.003162 µM) of the same molecule?
The relative viability was 1.19.

What about the relative viability (NCI-H2085; first compound 0.01 µM) of the same molecule?
The relative viability was 1.38.

And the relative viability (NCI-H2085; first compound 0.03162 µM)?
Its relative viability is 0.957.

What about the relative viability (NCI-H2085; first compound 0.1 µM) of the same molecule?
The relative viability was 1.03.

What about the relative viability (NCI-H2087; first compound 0.001 µM) of the same molecule?
The relative viability was 0.795.

What about the relative viability (NCI-H2087; first compound 0.003162 µM) of the same molecule?
Its relative viability is 0.86.

And the relative viability (NCI-H2087; first compound 0.01 µM)?
The relative viability was 0.997.

What about the relative viability (NCI-H2087; first compound 0.03162 µM) of the same molecule?
Its relative viability is 0.93.

What about the relative viability (NCI-H2087; first compound 0.1 µM) of the same molecule?
Its relative viability is 0.734.

And the relative viability (NCI-H2228; first compound 0.001 µM)?
The relative viability was 0.662.

What about the relative viability (NCI-H2228; first compound 0.003162 µM) of the same molecule?
The relative viability was 1.1.

And the relative viability (NCI-H2228; first compound 0.01 µM)?
Its relative viability is 0.927.

What about the relative viability (NCI-H2228; first compound 0.03162 µM) of the same molecule?
The relative viability was 0.826.

What about the relative viability (NCI-H2228; first compound 0.1 µM) of the same molecule?
Its relative viability is 0.763.

And the relative viability (NCI-H322M; first compound 0.001 µM)?
Its relative viability is 1.09.

What about the relative viability (NCI-H322M; first compound 0.003162 µM) of the same molecule?
The relative viability was 1.51.

And the relative viability (NCI-H322M; first compound 0.03162 µM)?
The relative viability was 0.954.

What about the relative viability (NCI-H322M; first compound 0.1 µM) of the same molecule?
The relative viability was 1.16.

And the relative viability (NCI-H441; first compound 0.001 µM)?
Its relative viability is 0.499.

And the relative viability (NCI-H441; first compound 0.003162 µM)?
The relative viability was 0.667.

What about the relative viability (NCI-H441; first compound 0.01 µM) of the same molecule?
Its relative viability is 0.568.

What about the relative viability (NCI-H441; first compound 0.1 µM) of the same molecule?
The relative viability was 0.493.

And the relative viability (NCI-H460; first compound 0.001 µM)?
Its relative viability is 1.02.

And the relative viability (NCI-H460; first compound 0.003162 µM)?
Its relative viability is 1.48.

What about the relative viability (NCI-H460; first compound 0.01 µM) of the same molecule?
Its relative viability is 1.76.

And the relative viability (NCI-H460; first compound 0.03162 µM)?
The relative viability was 0.628.

What about the relative viability (NCI-H460; first compound 0.1 µM) of the same molecule?
Its relative viability is 0.975.

And the relative viability (SK-MES-1; first compound 0.001 µM)?
The relative viability was 1.17.

And the relative viability (SK-MES-1; first compound 0.003162 µM)?
Its relative viability is 1.5.

And the relative viability (SK-MES-1; first compound 0.01 µM)?
Its relative viability is 1.61.

And the relative viability (SK-MES-1; first compound 0.03162 µM)?
The relative viability was 1.1.

What about the relative viability (SK-MES-1; first compound 0.1 µM) of the same molecule?
Its relative viability is 1.29.
